# Reference: the NIST ThermoML archive (doi:10.1007/s10765-011-0978-y)
# Numbers after ± are expanded uncertainties.
# Conditions: Fluid (supercritical or subcritical phases), Falling or rolling sphere viscometry
compound,measurement,setting,value
"FCC(F)(F)F [1,1,1,2-tetrafluoroethane]",viscosity,"293.15 K, 10000 kPa",0.255 ± 0.0088 mPa·s
same,viscosity,"293.15 K, 25000 kPa",0.3008 ± 0.01 mPa·s
same,viscosity,"293.15 K, 50000 kPa",0.3631 ± 0.012 mPa·s
same,viscosity,"293.15 K, 100000 kPa",0.5045 ± 0.016 mPa·s
same,viscosity,"293.15 K, 150000 kPa",0.6605 ± 0.021 mPa·s
same,viscosity,"293.15 K, 200000 kPa",0.8252 ± 0.026 mPa·s
same,viscosity,"298.15 K, 10000 kPa",0.2368 ± 0.0079 mPa·s
same,viscosity,"298.15 K, 25000 kPa",0.2795 ± 0.0092 mPa·s
same,viscosity,"298.15 K, 50000 kPa",0.3435 ± 0.011 mPa·s
same,viscosity,"298.15 K, 100000 kPa",0.4988 ± 0.016 mPa·s
same,viscosity,"298.15 K, 150000 kPa",0.6459 ± 0.02 mPa·s
same,viscosity,"298.15 K, 200000 kPa",0.819 ± 0.026 mPa·s
same,viscosity,"298.15 K, 250000 kPa",0.9773 ± 0.03 mPa·s
same,viscosity,"313.15 K, 10000 kPa",0.207 ± 0.0071 mPa·s
same,viscosity,"313.15 K, 25000 kPa",0.2461 ± 0.0082 mPa·s
same,viscosity,"313.15 K, 50000 kPa",0.3127 ± 0.01 mPa·s
same,viscosity,"313.15 K, 100000 kPa",0.4302 ± 0.014 mPa·s
same,viscosity,"313.15 K, 150000 kPa",0.5758 ± 0.018 mPa·s
same,viscosity,"313.15 K, 200000 kPa",0.7155 ± 0.023 mPa·s
same,viscosity,"313.15 K, 250000 kPa",0.8952 ± 0.028 mPa·s
same,viscosity,"313.15 K, 300000 kPa",1.069 ± 0.035 mPa·s
same,viscosity,"313.15 K, 350000 kPa",1.25 ± 0.039 mPa·s
same,viscosity,"313.15 K, 400000 kPa",1.446 ± 0.045 mPa·s
same,viscosity,"323.15 K, 10000 kPa",0.1805 ± 0.0063 mPa·s
same,viscosity,"323.15 K, 25000 kPa",0.2229 ± 0.0075 mPa·s
same,viscosity,"323.15 K, 50000 kPa",0.2852 ± 0.0092 mPa·s
same,viscosity,"323.15 K, 100000 kPa",0.3946 ± 0.013 mPa·s
same,viscosity,"323.15 K, 150000 kPa",0.502 ± 0.016 mPa·s
same,viscosity,"323.15 K, 200000 kPa",0.6252 ± 0.02 mPa·s
same,viscosity,"323.15 K, 250000 kPa",0.7651 ± 0.024 mPa·s
same,viscosity,"323.15 K, 300000 kPa",0.914 ± 0.029 mPa·s
same,viscosity,"348.15 K, 10000 kPa",0.1405 ± 0.0051 mPa·s
same,viscosity,"348.15 K, 25000 kPa",0.1783 ± 0.006 mPa·s
same,viscosity,"348.15 K, 50000 kPa",0.2343 ± 0.0076 mPa·s
same,viscosity,"348.15 K, 100000 kPa",0.3327 ± 0.011 mPa·s
same,viscosity,"348.15 K, 150000 kPa",0.43 ± 0.013 mPa·s
same,viscosity,"348.15 K, 200000 kPa",0.5368 ± 0.017 mPa·s
same,viscosity,"348.15 K, 250000 kPa",0.6421 ± 0.02 mPa·s
same,viscosity,"348.15 K, 300000 kPa",0.7647 ± 0.024 mPa·s
same,viscosity,"348.15 K, 350000 kPa",0.8894 ± 0.028 mPa·s
same,viscosity,"348.15 K, 400000 kPa",1.04 ± 0.033 mPa·s
same,viscosity,"373.15 K, 25000 kPa",0.1531 ± 0.0052 mPa·s
same,viscosity,"373.15 K, 50000 kPa",0.2038 ± 0.0066 mPa·s
same,viscosity,"373.15 K, 100000 kPa",0.2931 ± 0.0093 mPa·s
same,viscosity,"373.15 K, 150000 kPa",0.3764 ± 0.012 mPa·s
same,viscosity,"373.15 K, 200000 kPa",0.4649 ± 0.015 mPa·s
same,viscosity,"373.15 K, 250000 kPa",0.5564 ± 0.017 mPa·s
same,viscosity,"373.15 K, 300000 kPa",0.6468 ± 0.02 mPa·s
same,viscosity,"373.15 K, 350000 kPa",0.7557 ± 0.024 mPa·s
same,viscosity,"373.15 K, 400000 kPa",0.8715 ± 0.027 mPa·s
same,viscosity,"398.15 K, 50000 kPa",0.1725 ± 0.0056 mPa·s
same,viscosity,"398.15 K, 100000 kPa",0.2544 ± 0.008 mPa·s
same,viscosity,"398.15 K, 150000 kPa",0.3243 ± 0.01 mPa·s
same,viscosity,"438.15 K, 50000 kPa",0.1458 ± 0.0047 mPa·s
same,viscosity,"438.15 K, 100000 kPa",0.2131 ± 0.0068 mPa·s
same,viscosity,"438.15 K, 150000 kPa",0.2789 ± 0.0087 mPa·s
same,viscosity,"438.15 K, 200000 kPa",0.3408 ± 0.011 mPa·s
same,viscosity,"438.15 K, 250000 kPa",0.3977 ± 0.012 mPa·s
same,viscosity,"438.15 K, 300000 kPa",0.4612 ± 0.014 mPa·s
